Laboratory results from patent US12345718B2, “Method for determining the haemoglobin content of an erythroid cell” (UNIVERSITÉ PARIS EST CRÉTEIL VAL DE MARNE, priority 2016, dated 2025).

Test system: HbF
Assay: HbF content of each red blood cell by flow cytometry (HbF distribution) during treatment with hydroxyurea

NC(=O)NO [hydroxyurea]
% RBCs with HbF [8; 10[ pg (patient 2, M3-M4): 8.75 % RBCs | % RBCs with HbF [10; 15[ pg (patient 2, M3-M4): 8.50 % RBCs | % RBCs with HbF [15; 20[ pg (patient 2, M3-M4): 14.54 % RBCs | % RBCs with HbF ≥20 pg (patient 2, M3-M4): 33.30 % RBCs | change in red blood cells containing HbF content greater than 20 pg (patient 2, at M6): clear increase | % RBCs with HbF [0; 2[ pg (patient 2, ≥M6): 4.98 % RBCs | % RBCs with HbF [2; 4[ pg (patient 2, ≥M6): 7.04 % RBCs | % RBCs with HbF [4; 6[ pg (patient 2, ≥M6): 5.53 % RBCs | % RBCs with HbF [6; 8[ pg (patient 2, ≥M6): 4.85 % RBCs | % RBCs with HbF [8; 10[ pg (patient 2, ≥M6): 4.56 % RBCs | % RBCs with HbF [10; 15[ pg (patient 2, ≥M6): 7.48 % RBCs | % RBCs with HbF [15; 20[ pg (patient 2, ≥M6): 9.75 % RBCs | % RBCs with HbF ≥20 pg (patient 2, ≥M6): 55.81 % RBCs | % RBCs with HbF [0; 2[ pg (patient 11, D15-M1): 55.38 % RBCs | % RBCs with HbF [2; 4[ pg (patient 11, D15-M1): 23.31 % RBCs | % RBCs with HbF [4; 6[ pg (patient 11, D15-M1): 6.25 % RBCs | % RBCs with HbF [6; 8[ pg (patient 11, D15-M1): 3.07 % RBCs | % RBCs with HbF [8; 10[ pg (patient 11, D15-M1): 2.55 % RBCs | % RBCs with HbF [10; 15[ pg (patient 11, D15-M1): 2.24 % RBCs | % RBCs with HbF [15; 20[ pg (patient 11, D15-M1): 4.42 % RBCs | % RBCs with HbF ≥20 pg (patient 11, D15-M1): 2.78 % RBCs | % RBCs with HbF [0; 2[ pg (patient 11, M3-M4): 48.83 % RBCs | % RBCs with HbF [2; 4[ pg (patient 11, M3-M4): 31.73 % RBCs | % RBCs with HbF [4; 6[ pg (patient 11, M3-M4): 9.30 % RBCs | % RBCs with HbF [6; 8[ pg (patient 11, M3-M4): 4.32 % RBCs | % RBCs with HbF [8; 10[ pg (patient 11, M3-M4): 2.04 % RBCs | % RBCs with HbF [10; 15[ pg (patient 11, M3-M4): 0.72 % RBCs | % RBCs with HbF [15; 20[ pg (patient 11, M3-M4): 2.46 % RBCs | % RBCs with HbF ≥20 pg (patient 11, M3-M4): 0.59 % RBCs | RBCs >6 pg HbF (patient 11, at 6 months of treatment): 57% | decrease of red blood cells with HbF content of less than 2 pg (patient 11, at M6): approximately 73% | % RBCs with HbF [0; 2[ pg (patient 11, ≥M6): 12.93 % RBCs | % RBCs with HbF [2; 4[ pg (patient 11, ≥M6): 17.62 % RBCs | % RBCs with HbF [4; 6[ pg (patient 11, ≥M6): 11.85 % RBCs | % RBCs with HbF [6; 8[ pg (patient 11, ≥M6): 8.05 % RBCs | % RBCs with HbF [8; 10[ pg (patient 11, ≥M6): 6.08 % RBCs | % RBCs with HbF [10; 15[ pg (patient 11, ≥M6): 6.13 % RBCs | % RBCs with HbF [15; 20[ pg (patient 11, ≥M6): 9.77 % RBCs | % RBCs with HbF ≥20 pg (patient 11, ≥M6): 27.57 % RBCs | % RBCs with HbF [0; 2[ pg (patient 24, D15-M1): 53.17 % RBCs | % RBCs with HbF [2; 4[ pg (patient 24, D15-M1): 11.57 % RBCs | % RBCs with HbF [4; 6[ pg (patient 24, D15-M1): 6.69 % RBCs | % RBCs with HbF [6; 8[ pg (patient 24, D15-M1): 5.58 % RBCs | % RBCs with HbF [8; 10[ pg (patient 24, D15-M1): 4.50 % RBCs | % RBCs with HbF [10; 15[ pg (patient 24, D15-M1): 3.89 % RBCs | % RBCs with HbF [15; 20[ pg (patient 24, D15-M1): 7.56 % RBCs | % RBCs with HbF ≥20 pg (patient 24, D15-M1): 7.04 % RBCs | % RBCs with HbF [0; 2[ pg (patient 24, M3-M4): 44.56 % RBCs | % RBCs with HbF [2; 4[ pg (patient 24, M3-M4): 24.93 % RBCs | % RBCs with HbF [4; 6[ pg (patient 24, M3-M4): 12.53 % RBCs | % RBCs with HbF [6; 8[ pg (patient 24, M3-M4): 5.81 % RBCs | % RBCs with HbF [8; 10[ pg (patient 24, M3-M4): 3.09 % RBCs | % RBCs with HbF [10; 15[ pg (patient 24, M3-M4): 1.87 % RBCs | % RBCs with HbF [15; 20[ pg (patient 24, M3-M4): 3.81 % RBCs | % RBCs with HbF ≥20 pg (patient 24, M3-M4): 3.41 % RBCs | RBCs >6 pg HbF (patient 24, at 6 months of treatment): 24% | decrease of red blood cells with HbF content of less than 2 pg (patient 24, at M6): approximately 40% | % RBCs with HbF [0; 2[ pg (patient 24, ≥M6): 36.98 % RBCs | % RBCs with HbF [2; 4[ pg (patient 24, ≥M6): 25.28 % RBCs | % RBCs with HbF [4; 6[ pg (patient 24, ≥M6): 13.64 % RBCs | % RBCs with HbF [6; 8[ pg (patient 24, ≥M6): 6.92 % RBCs | % RBCs with HbF [8; 10[ pg (patient 24, ≥M6): 3.93 % RBCs | % RBCs with HbF [10; 15[ pg (patient 24, ≥M6): 2.70 % RBCs | % RBCs with HbF [15; 20[ pg (patient 24, ≥M6): 5.36 % RBCs | % RBCs with HbF ≥20 pg (patient 24, ≥M6): 5.20 % RBCs | patients in whom HbF distribution becomes homogeneous (starting from M2): 1 patient
